The record followed here is patent US20260137703A1, “2-AMINO-PYRIDO[2,3-D]PYRIMIDIN-7(8H)-ONE AND 7-AMINO-1-PYRIMIDO[4,5-D]PYRIMIDIN-2(1 H)-ONE DERIVATIVES AS EGFR INHIBITORS FOR THE TREATMENT OF CANCER” (Cancer Research Technology Limited, priority 2022, published 2026).

In test [1] the target is T1, Phospho-EGFR (Tyr1068) in H1975 C797S cells (CRISPR-edited EGFR C797S) (Homo sapiens, UniProt P00533, C797S/L858R/T790M).
T1 construct: host or cells: H1975 C797S (CRISPR-edited)
Put plainly: HTRF pEGFR/total EGFR in H1975 C797S cells. The class given is cell-based. As to conditions: ratio pEGFR/total EGFR, compound 3 hours. The method in brief:
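Readout is the HTRF-measured Tyr1068 phospho-EGFR to total EGFR ratio, normalised to the 0 μM control as percent. Preceding this, CRISPR-edited H1975 C797S cells, plated 24 h earlier, were exposed 3 h to duplicate compound doses in medium with 0.1% DMSO, then lysed on a shaker.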
In general terms: In TR-FRET formats the signal depends on donor and acceptor labels being close together.

For test [2], the target named is T2, Phospho-EGFR (Tyr1068) in A431 cells (Homo sapiens, UniProt P00533).
T2 construct: endogenous in cells; host or cells: A431
Description: HTRF pEGFR/total EGFR in A431 cells with EGF stimulation. The class given is cell-based. As to conditions: ratio pEGFR/total EGFR, compound 2.5 hours then 100 ng/ml EGF 30 mins. The gist of the method: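 Values are pEGFR(Tyr1068)/total EGFR HTRF ratios (665/620 nm) given as percent of the 0 μM control. Adhered A431 cells (20,000 per well, 24 h) had 2.5 h compound pretreatment in 0.1% DMSO, then 30 min of 100 ng/ml EGF before lysis.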

Test [3] addresses CtermHisTag-mEGFR Wild type (Homo sapiens, UniProt P00533). Description: biochemical.
Test [4] addresses T3, Phospho-EGFR (Tyr1068) in H1975 cells (Homo sapiens, UniProt P00533, L858R/T790M).
T3 construct: host or cells: H1975
Put plainly: HTRF pEGFR/total EGFR in H1975 cells. In kind it is cell-based. As to conditions: ratio pEGFR/total EGFR, compound 3 hours. The gist of the method: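 Readout is the phospho-EGFR (Tyr1068) to total EGFR HTRF ratio, expressed relative to 0 μM control. Adhered H1975 cells were exposed to compound for 3 hours at 0.1% DMSO, duplicate wells, then lysed for 30 min at room temperature before two-wavelength fluorescence reading.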

Molecules are shown by their SMILES. Counter-ions that a name gives are not always drawn. Where only a bound is given, the exact number is not on record here.

CtermHisTag-mEGFR Wild type, sequence (P00533 whole entry): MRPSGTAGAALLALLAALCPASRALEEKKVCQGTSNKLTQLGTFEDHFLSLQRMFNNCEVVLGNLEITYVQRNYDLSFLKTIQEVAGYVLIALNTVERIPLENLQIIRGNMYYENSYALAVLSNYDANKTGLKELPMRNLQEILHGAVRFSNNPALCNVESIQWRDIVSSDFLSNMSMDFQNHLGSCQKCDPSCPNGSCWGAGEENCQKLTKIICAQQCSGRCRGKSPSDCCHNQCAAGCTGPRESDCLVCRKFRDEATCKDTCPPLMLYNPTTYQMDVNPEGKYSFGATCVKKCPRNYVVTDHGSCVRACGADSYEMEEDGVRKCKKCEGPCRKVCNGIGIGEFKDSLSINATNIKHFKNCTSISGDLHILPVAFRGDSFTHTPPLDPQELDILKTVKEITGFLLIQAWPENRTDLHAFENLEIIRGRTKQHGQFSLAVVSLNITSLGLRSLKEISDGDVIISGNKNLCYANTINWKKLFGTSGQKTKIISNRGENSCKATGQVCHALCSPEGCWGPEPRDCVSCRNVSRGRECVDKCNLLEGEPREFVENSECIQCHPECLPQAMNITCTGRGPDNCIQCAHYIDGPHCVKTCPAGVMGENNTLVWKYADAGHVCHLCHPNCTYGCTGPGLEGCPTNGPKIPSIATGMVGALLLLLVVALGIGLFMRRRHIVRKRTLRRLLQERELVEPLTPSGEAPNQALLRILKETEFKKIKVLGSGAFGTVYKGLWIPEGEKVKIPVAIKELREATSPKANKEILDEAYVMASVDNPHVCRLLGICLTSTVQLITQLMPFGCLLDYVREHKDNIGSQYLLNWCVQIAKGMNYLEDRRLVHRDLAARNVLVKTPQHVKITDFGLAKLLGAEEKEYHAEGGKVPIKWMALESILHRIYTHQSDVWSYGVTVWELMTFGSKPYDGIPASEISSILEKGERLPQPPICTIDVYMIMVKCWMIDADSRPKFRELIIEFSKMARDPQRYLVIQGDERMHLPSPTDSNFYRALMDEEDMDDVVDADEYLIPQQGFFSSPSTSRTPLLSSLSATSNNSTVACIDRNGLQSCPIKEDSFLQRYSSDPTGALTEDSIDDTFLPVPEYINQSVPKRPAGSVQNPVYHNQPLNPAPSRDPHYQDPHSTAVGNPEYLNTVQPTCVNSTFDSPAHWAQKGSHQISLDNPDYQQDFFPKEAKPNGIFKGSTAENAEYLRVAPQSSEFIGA
T1 sequence (P00533 25-1210 T790M/C797S/L858R): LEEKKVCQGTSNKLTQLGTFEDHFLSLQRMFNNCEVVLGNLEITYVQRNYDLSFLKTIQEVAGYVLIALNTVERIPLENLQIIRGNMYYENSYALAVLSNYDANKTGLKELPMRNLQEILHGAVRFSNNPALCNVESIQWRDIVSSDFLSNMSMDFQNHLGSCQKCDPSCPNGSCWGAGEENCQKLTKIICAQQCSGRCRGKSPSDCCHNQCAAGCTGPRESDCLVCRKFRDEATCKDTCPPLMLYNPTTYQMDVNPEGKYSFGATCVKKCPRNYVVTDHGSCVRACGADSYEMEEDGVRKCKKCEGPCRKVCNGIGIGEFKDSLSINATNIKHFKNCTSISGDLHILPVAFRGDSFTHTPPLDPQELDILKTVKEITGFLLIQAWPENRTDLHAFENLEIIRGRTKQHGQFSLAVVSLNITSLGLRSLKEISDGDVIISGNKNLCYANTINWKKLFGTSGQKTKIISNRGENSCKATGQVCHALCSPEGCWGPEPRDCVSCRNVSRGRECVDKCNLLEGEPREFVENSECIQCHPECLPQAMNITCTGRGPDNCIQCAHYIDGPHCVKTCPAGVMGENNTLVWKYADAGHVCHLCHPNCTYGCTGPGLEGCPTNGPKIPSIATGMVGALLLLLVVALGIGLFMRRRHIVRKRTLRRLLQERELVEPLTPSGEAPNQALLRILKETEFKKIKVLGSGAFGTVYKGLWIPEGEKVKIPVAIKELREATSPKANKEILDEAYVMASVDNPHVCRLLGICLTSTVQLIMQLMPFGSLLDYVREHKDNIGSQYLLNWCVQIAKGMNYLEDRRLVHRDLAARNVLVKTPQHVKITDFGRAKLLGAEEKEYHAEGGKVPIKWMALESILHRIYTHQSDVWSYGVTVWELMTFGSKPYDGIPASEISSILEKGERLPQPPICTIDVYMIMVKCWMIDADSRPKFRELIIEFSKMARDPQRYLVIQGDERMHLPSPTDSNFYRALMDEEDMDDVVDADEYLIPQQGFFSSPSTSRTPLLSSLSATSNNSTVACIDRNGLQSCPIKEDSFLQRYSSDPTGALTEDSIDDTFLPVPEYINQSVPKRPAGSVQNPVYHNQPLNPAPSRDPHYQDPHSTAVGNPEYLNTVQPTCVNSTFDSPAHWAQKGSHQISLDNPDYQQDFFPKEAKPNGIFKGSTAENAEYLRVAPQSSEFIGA
T2 sequence (P00533 25-1210): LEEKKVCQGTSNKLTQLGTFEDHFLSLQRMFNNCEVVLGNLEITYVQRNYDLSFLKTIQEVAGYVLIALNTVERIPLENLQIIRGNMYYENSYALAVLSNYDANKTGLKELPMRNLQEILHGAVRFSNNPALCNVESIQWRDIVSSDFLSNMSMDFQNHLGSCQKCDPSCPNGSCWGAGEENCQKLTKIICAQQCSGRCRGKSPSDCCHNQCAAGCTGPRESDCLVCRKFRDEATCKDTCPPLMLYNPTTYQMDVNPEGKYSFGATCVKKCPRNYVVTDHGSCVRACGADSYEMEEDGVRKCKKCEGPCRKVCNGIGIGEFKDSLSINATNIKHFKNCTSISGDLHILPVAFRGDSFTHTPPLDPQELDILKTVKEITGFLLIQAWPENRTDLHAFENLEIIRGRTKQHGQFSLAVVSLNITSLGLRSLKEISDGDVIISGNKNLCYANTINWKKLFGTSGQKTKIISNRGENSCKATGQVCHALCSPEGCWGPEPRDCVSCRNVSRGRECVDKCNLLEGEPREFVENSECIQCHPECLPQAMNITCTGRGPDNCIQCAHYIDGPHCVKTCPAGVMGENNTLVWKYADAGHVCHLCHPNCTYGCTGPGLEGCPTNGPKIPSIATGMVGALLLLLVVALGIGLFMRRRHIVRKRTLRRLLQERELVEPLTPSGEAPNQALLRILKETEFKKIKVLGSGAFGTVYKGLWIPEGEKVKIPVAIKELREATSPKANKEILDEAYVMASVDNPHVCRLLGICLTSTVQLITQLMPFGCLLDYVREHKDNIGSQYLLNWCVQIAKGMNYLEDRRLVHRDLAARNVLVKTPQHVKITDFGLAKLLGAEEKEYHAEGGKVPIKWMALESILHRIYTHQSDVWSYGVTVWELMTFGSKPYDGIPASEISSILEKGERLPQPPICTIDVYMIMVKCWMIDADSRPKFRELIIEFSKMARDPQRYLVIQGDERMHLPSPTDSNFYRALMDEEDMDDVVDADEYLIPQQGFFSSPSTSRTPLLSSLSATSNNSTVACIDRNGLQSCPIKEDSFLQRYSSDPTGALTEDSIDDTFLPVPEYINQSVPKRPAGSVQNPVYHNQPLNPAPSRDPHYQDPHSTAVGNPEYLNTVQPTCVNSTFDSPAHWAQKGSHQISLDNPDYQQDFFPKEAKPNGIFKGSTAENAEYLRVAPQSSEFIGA
T3 sequence (P00533 25-1210 T790M/L858R): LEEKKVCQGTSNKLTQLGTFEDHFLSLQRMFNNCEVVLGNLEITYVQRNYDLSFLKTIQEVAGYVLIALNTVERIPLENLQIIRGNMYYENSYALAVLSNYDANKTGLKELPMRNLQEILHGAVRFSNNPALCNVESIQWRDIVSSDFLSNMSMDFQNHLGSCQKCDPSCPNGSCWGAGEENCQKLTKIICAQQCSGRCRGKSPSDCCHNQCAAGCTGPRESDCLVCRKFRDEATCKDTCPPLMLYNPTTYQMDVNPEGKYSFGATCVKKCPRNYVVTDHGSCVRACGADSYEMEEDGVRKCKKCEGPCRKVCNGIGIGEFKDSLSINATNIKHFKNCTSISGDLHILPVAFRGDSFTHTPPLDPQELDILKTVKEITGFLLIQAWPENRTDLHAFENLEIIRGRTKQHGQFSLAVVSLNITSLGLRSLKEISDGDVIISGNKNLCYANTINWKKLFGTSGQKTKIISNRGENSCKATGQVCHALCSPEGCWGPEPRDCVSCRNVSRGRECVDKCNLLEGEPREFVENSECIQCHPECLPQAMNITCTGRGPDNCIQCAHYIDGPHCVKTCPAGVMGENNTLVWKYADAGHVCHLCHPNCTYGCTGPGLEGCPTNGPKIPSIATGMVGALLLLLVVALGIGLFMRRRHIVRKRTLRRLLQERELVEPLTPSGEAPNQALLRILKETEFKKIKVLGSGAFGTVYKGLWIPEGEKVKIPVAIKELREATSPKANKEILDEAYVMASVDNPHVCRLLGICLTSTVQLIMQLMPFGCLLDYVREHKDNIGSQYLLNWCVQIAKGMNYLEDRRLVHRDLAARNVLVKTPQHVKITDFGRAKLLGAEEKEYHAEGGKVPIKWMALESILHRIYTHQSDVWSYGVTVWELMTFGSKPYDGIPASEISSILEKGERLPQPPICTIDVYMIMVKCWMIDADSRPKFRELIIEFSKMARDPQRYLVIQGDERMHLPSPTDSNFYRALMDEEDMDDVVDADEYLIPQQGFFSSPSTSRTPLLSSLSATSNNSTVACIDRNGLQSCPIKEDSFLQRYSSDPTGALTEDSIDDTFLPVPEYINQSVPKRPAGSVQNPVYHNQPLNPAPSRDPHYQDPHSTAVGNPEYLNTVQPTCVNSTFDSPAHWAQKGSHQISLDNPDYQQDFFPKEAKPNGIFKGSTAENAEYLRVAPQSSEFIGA

As for `C#Cc1cc(=O)n([C@@H]2CCCN(C(=O)CC)C2)c2nc(Nc3ccc(N(C)CCN(C)C)cc3)ncc12` [Example 77, (R)-2-((4-((2-(Dimethylamino)ethyl)(methyl)amino)phenyl)amino)-5-ethynyl-8-(1-propionylpiperidin-3-yl)pyrido[2,3-d]pyrimidin-7(8H)-one trifluoroacetic acid salt], the IC50 (usually the point on the concentration scale where inhibition reaches its midpoint) was more than 3000 nM in test [1], more than 3000 nM in test [2], more than 10000 nM in test [3] and more than 3000 nM in test [4].
Regarding `C#Cc1cc(=O)n(C2CCCC2)c2nc(Nc3ccc(N4CCN(C)CC4)cc3)ncc12` [Example 78, 8-cyclopentyl-5-ethynyl-2-((4-(4-methylpiperazin-1-yl)phenyl)amino)pyrido[2,3-d]pyrimidin-7(8H)-one], the IC50 was less than 500 nM in test [1], more than 3000 nM in test [2], less than 1000 nM in test [3] and less than 500 nM in test [4].
Regarding `C#Cc1cc(=O)n([C@H]2CC[C@@H](NC(C)=O)CC2)c2nc(Nc3ccc(N(C)CCN(C)C)cc3)ncc12` [Example 79, N-[(1s,4s)-4-{2-[(4-{[2-(Dimethylamino)ethyl](methyl)amino}phenyl)amino]-5-ethynyl-7-oxopyrido[2,3-d]pyrimidin-8-yl}cyclohexyl]acetamide], the half-maximal inhibitory concentration (IC50) was less than 500 nM in test [1], 1000 to 3000 nM in test [2], less than 1000 nM in test [3] and less than 500 nM in test [4].
Turning to `C#Cc1cc(=O)n([C@H]2CC[C@@H](CO)CC2)c2nc(Nc3ccc(N(C)CCN(C)C)cc3)ncc12` [Example 80, 2-[(4-{[2-(Dimethylamino)ethyl](methyl)amino}phenyl)amino]-5-ethynyl-8-[(1s,4s)-4-(hydroxymethyl)cyclohexyl]pyrido[2,3-d]pyrimidin-7-one], the IC50 in test [1] was 500 to 1000 nM; in test [2], 1000 to 3000 nM; in test [3], less than 1000 nM; in test [4], less than 500 nM.
The like results for `C#Cc1cc(=O)n([C@H]2CC[C@@H](NC(=O)CC)CC2)c2nc(Nc3ccc(N4CCN(C)CC4)cc3)ncc12` [Example 81, N-[(1s,4s)-4-(5-Ethynyl-2-{[4-(4-methylpiperazin-1-yl)phenyl]amino}-7-oxopyrido[2,3-d]pyrimidin-8-yl)cyclohexyl]propanamide] were, in that order, less than 500 nM, more than 3000 nM, less than 1000 nM and less than 500 nM.
For `C#Cc1cc(=O)n([C@H]2CC[C@@H](NC(=O)C(C)C)CC2)c2nc(Nc3ccc(N4CCN(C)CC4)cc3)ncc12` [Example 82, 2-Methyl-N-[(1s,4s)-4-(5-ethynyl-2-{[4-(4-methylpiperazin-1-yl)phenyl]amino}-7-oxopyrido[2,3-d]pyrimidin-8-yl)cyclohexyl]propanamide], in that order: less than 500 nM, more than 3000 nM, less than 1000 nM and less than 500 nM.
The like results for `C#Cc1cc(=O)n(-c2ccc(OC)cc2OC)c2nc(Nc3ccc(N(C)CCN(C)C)cc3)ncc12` [Example 86, 8-(2,4-Dimethoxyphenyl)-2-[(4-{[2-(dimethylamino)ethyl](methyl)amino}phenyl)amino]-5-ethynylpyrido[2,3-d]pyrimidin-7-one] were, in that order, 500 to 1000 nM, 1000 to 3000 nM, less than 1000 nM and less than 500 nM.
With `C#Cc1cc(=O)n([C@H]2CC[C@H](NC(C)=O)CC2)c2nc(Nc3ccc(N4CCN(C)CC4)cc3)ncc12` [Example 87, N-[(1r,4r)-4-(5-Ethynyl-2-{[4-(4-methylpiperazin-1-yl)phenyl]amino}-7-oxopyrido[2,3-d]pyrimidin-8-yl)cyclohexyl]acetamide], the IC50 in test [1] is less than 500 nM; in test [2], more than 3000 nM; in test [3], less than 1000 nM; in test [4] it was less than 500 nM.
Turning to `C#Cc1cc(=O)n(-c2ccc(NC(=O)C=C)cc2)c2nc(Nc3ccccc3OC)ncc12` [Example 88, N-(4-(5-Ethynyl-2-((2-methoxyphenyl)amino)-7-oxopyrido[2,3-d]pyrimidin-8(7H)-yl)phenyl)acrylamide], the IC50 in test [1] is more than 3000 nM; in test [2], more than 3000 nM; in test [3], 1000 to 10000 nM; in test [4], more than 3000 nM.
As for `C#Cc1cc(=O)n([C@H]2CC[C@H](NC(=O)c3ccnnc3)CC2)c2nc(Nc3ccc(N4CCN(C)CC4)cc3)ncc12` [Example 89, N-[(1r,4r)-4-(5-Ethynyl-2-{[4-(4-methylpiperazin-1-yl)phenyl]amino}-7-oxopyrido[2,3-d]pyrimidin-8-yl)cyclohexyl]pyridazine-4-carboxamide], the IC50 in test [1] is less than 500 nM; in test [2], more than 3000 nM; in test [3] it was less than 1000 nM; in test [4], less than 500 nM.
Take `C#Cc1cc(=O)n([C@H]2CC[C@@H](NC(=O)CN(C)C)CC2)c2nc(Nc3ccccc3OC)ncc12` [Example 90, 2-(Dimethylamino)-N-[(1s,4s)-4-{5-ethynyl-2-[(2-methoxyphenyl)amino]-7-oxopyrido[2,3-d]pyrimidin-8-yl}cyclohexyl]acetamide]: the IC50 in test [1] is more than 3000 nM; in test [2] it was more than 3000 nM; in test [3] it was 1000 to 10000 nM; in test [4] it was 1000 to 3000 nM.
Turning to `C#Cc1cc(=O)n([C@H]2CC[C@@H](NC(=O)Cc3cn[nH]c3)CC2)c2nc(Nc3ccc(N4CCN(C)CC4)cc3)ncc12` [Example 91, 2-(1H-Pyrazol-4-yl)-N-[(1s,4s)-4-(5-ethynyl-2-{[4-(4-methylpiperazin-1-yl)phenyl]amino}-7-oxopyrido[2,3-d]pyrimidin-8-yl)cyclohexyl]acetamide], the IC50 in test [1] is 1000 to 3000 nM; in test [2], more than 3000 nM; in test [3] it was less than 1000 nM; in test [4], 500 to 1000 nM.
The like results for `C#Cc1cc(=O)n([C@H]2CC[C@@H](NC(=O)CCC(=O)OC)CC2)c2nc(Nc3ccc(N4CCN(C)CC4)cc3)ncc12` [Example 92, Methyl 4-(((1s,4s)-4-(5-ethynyl-2-((4-(4-methylpiperazin-1-yl)phenyl)amino)-7-oxopyrido[2,3-d]pyrimidin-8(7H)-yl)cyclohexyl)amino)-4-oxobutanoate] were, in that order, more than 3000 nM, more than 3000 nM, 1000 to 10000 nM and more than 3000 nM.
In the case of `C#Cc1cc(=O)n([C@H]2CC[C@@H](NC(=O)CCC(=O)N(C)C)CC2)c2nc(Nc3ccc(N4CCN(C)CC4)cc3)ncc12` [Example 93, N,N-Dimethyl-N′-[(1s,4s)-4-(5-ethynyl-2-{[4-(4-methylpiperazin-1-yl)phenyl]amino}-7-oxopyrido[2,3-d]pyrimidin-8-yl)cyclohexyl]succinamide], the IC50 was 1000 to 3000 nM in test [1], more than 3000 nM in test [2], 1000 to 10000 nM in test [3] and 500 to 1000 nM in test [4].
The like results for `C#Cc1cc(=O)n([C@H]2CC[C@@H](NC(=O)CC(=O)NC)CC2)c2nc(Nc3ccc(N4CCN(C)CC4)cc3)ncc12` [Example 94, N-Methyl-N′-[(1s,4s)-4-(5-ethynyl-2-{[4-(4-methylpiperazin-1-yl)phenyl]amino}-7-oxopyrido[2,3-d]pyrimidin-8-yl)cyclohexyl]propanediamide] were, in that order, 500 to 1000 nM, more than 3000 nM, 1000 to 10000 nM and 500 to 1000 nM.
The like results for `C#Cc1cc(=O)n([C@H]2CC[C@@H](NC(=O)CC(=O)N(C)C)CC2)c2nc(Nc3ccc(N4CCN(C)CC4)cc3)ncc12` [Example 95, N,N-Dimethyl-N′-[(1s,4s)-4-(5-ethynyl-2-{[4-(4-methylpiperazin-1-yl)phenyl]amino}-7-oxopyrido[2,3-d]pyrimidin-8-yl)cyclohexyl]propanediamide] were, in that order, less than 500 nM, more than 3000 nM, 1000 to 10000 nM and less than 500 nM.
`C#Cc1cc(=O)n([C@H]2CC[C@@H](NC(=O)CCN(C)C)CC2)c2nc(Nc3ccc(N4CCN(C)CC4)cc3)ncc12` [Example 96, 3-(Dimethylamino)-N-[(1s,4s)-4-(5-ethynyl-2-{[4-(4-methylpiperazin-1-yl)phenyl]amino}-7-oxopyrido[2,3-d]pyrimidin-8-yl)cyclohexyl]propanamide]: the IC50 in test [1] was more than 3000 nM; in test [2], more than 3000 nM; in test [3], less than 1000 nM; in test [4], 1000 to 3000 nM.
For `C#Cc1cc(=O)n([C@H]2CC[C@@H](NC(=O)CCCN(C)C)CC2)c2nc(Nc3ccc(N4CCN(C)CC4)cc3)ncc12` [Example 97, 4-(Dimethylamino)-N-[(1s,4s)-4-(5-ethynyl-2-{[4-(4-methylpiperazin-1-yl)phenyl]amino}-7-oxopyrido[2,3-d]pyrimidin-8-yl)cyclohexyl]butanamide], the IC50 was 1000 to 3000 nM in test [1], more than 3000 nM in test [2], more than 10000 nM in test [3] and 1000 to 3000 nM in test [4].
